Assay results taken from patent US4868193A, “Styryl tetrazoles and anti-allergic use thereof” (Rorer Pharmaceutical Corporation, priority 1986, dated 1989).
pIC50: −log10 of the molar value. Where a name gives a salt, the structure may show the parent alone. Read-outs that look alike come from different tables or passages of the source.

What was measured:
[1] = test system: LTD4 (leukotriene D4)-induced contraction of guinea pig peripheral lung strips; assay: In vitro assay to identify leukotriene antagonist compounds (guinea pig lung strips), vs LTD4; type: cell-based; conditions: 50% reduction of muscle response, read-out: In Vitro I50
Protocol: (§1) In Vitro Assay to Identify Leukotriene Antagonist Compounds […] Peripheral strips of guinea pig lungs are prepared and hung in tissue baths according to the procedure described by Drazen et al. Male guinea pigs (Charles River, 250-400 g) are sacrificed by cervical dislocation and their lungs rapidly removed. The individual lobes are dissected free and rinsed in Assay Buffer which is continuously aerated with 95% oxygen-5% carbon dioxide. After the lobes are extensively rinsed, a strip of lung tissue, approximately 2 mm thick and 5-8 cm long, is cut off the sharpest and most peripheral portion of each lobe. The peripheral edge is cut almost completely around the outside of the lobe so that a U-shaped strip is obtained. These strips are rinsed in Assay Buffer and then connected with surgical silk thread to the support rods from the tissue baths. The rods are adjusted in the baths and the strips connected to the pressure transducers. The tissue baths are aerated with 95% oxygen-5% carbon dioxide and maintained at 37°. The tension on these strips is adjusted to 500 mg with "re-zeros" the pen deflection on the previously calibrated polygraph. Tissues are initially washed with fresh buffer every 5-10 minutes for about 30 minutes. Thereafter, tissues were washed with fresh assay buffer at least every 20 minutes. Normalizing Muscle Contractions and Testing of Compounds 1. After the tissues have been repeatedly washed and allowed to equilibrate in the tissue bath, they are challenged with 1μM histamine. [Usually 10 μl of a 1 mM stock solution are added to the baths.] After maximum concentrations have been obtained, then tissues are washed and allowed to relax back to baseline tension. This histamine challenge procedure is repeated at least 1 or 2 more times to obtain a repeatable control response. […] Leukotriene (usually 0.4 units/ml) is added after the desired preincubation time and the muscle response is recorded. […] From this curve the concentration responding to the 50% reduction of the muscle concentration is calculated as the ^I 50 value. […]

[2] = test system: LTC4-induced contraction of guinea pig peripheral lung strips; assay: In vitro assay to identify leukotriene antagonist compounds (guinea pig lung strips), vs LTC4; type: cell-based; conditions: Cavia porcellus, 50% reduction of muscle response, read-out: In Vitro I50
Protocol: as §1

[3] = test system: LTD4 (leukotriene D4)-induced cutaneous wheal formation; assay: Leukotriene D4-induced wheal formation in the guinea pig; set-up: species or system guinea pig (male Hartley); conditions: Cavia porcellus, po, 1 h, p.o., 0.1 μg LTD4 intradermally, given one hour before Evans blue dye, read-out: In Vivo LTD4 Wheal, ED50
Protocol: Leukotriene D4 -Induced Wheal formation in the Guinea Pig Leukotriene D4 (LTD4) increases vascular permeability in guinea pig skin. LTD4 antagonists are tested for oral activity in a model of LTD4 -induced cutaneous wheal formation in the guinea pig. Male Hartley guinea pigs are given either vehicle (polyethylene glycol 400) or test compound by gauge one hour before intravenous injection of 1% Evans blue dye. Immediately after dye injection, 0.1 μg of LTD4 (in a volume of 0.1 ml) is injected intradermally at two separate dorsal sites. Thirty minutes later, the animals are sacrificed by carbon dioxide asphyxiation, the dorsal skins reflected, and glued wheal areas measured. Mean values±standard error for wheal areas in vehicle- and drug-treated groups are determined. Inhibition of wheal formation is calculated by comparison of drug-treated and control groups.

pIC50 ([1]; hydrochloride) | pIC50 ([1]; Cavia porcellus) | pIC50 [2] | SMILES | ED50 [3]
7.10 | 7.22 | 6.82 | C(=Cc1nnn[nH]1)c1cccc(OCc2ccc3ccccc3n2)c1.Cl [Example 1C, 5-[3-(Quinolin-2-yl-methoxy)styryl]-tetrazole hydrochloride] | 22 mg/kg
– | – | 6.30 | C(=Cc1nnn[nH]1)c1ccc(OCc2ccc3ccccc3n2)cc1 [Example 2C, 5-[4-(Quinolin-2-yl-methoxy)styryl]-tetrazole hydrochloride] | –
– | 6.19 | 5.92 | N#CC=Cc1cccc(OCc2ccc3ccccc3n2)c1 [Example 1B, 3-(Quinolin-2-yl-methoxy)-cinnamylnitrile] | –
